# Measurements reported in publication PMC8958504 (Journal of Medicinal Chemistry, 2022).
# Values joined by “and” are separate entries in the source; they are usually repeats but may differ in a detail not shown here. Equal entries are not always repeated.
# How the values were obtained:
# [1] = system: adult mice NSCs; assay: Neurogenic studies in SGZ-derived neurospheres; format: cell-based, mouse; conditions: 10 μM
# Protocol: Adult mice NSCs were isolated from SGZ of the dentate gyrus of the hippocampus and grown as free-floating neurospheres (NS).[72],[78] The neurogenic potential of each compound was determined using fluorescence confocal microscopy by quantifying the expression of two well-known neuronal markers: human β-III-tubulin (TuJ-1 clone) and microtubule-associated protein 2 (MAP-2). TuJ-1 is expressed in immature neurons, whereas the expression of MAP-2 indicates a consolidated mature neuronal stage.[79] Given that neurogenesis involves not only the proliferation of NSC but also the migration of newly generated cells, the greatest migration distance promoted by each compound was also measured (Figure 8).
# Adult male C57BL/6 mice (3 months old) were used in order to determine neurogenesis activity. […] DAPI staining was used as a nuclear marker. Fluorescent representative images were acquired with a Nikon fluorescence microscope 90i coupled to a digital camera Qi. The microscope configuration was adjusted to produce the optimum signal-to-noise ratio. […] Quantification was undertaken using the image analySIS software (Soft Imaging System Corp., Münster, Germany) and normalized to total nuclei (DAPI-stained). The intensity of immunostaining of neurites from TuJ1-labeled cells and the number of MAP-2-positive cells were estimated from nine neurospheres per condition over three independent experiments. The outgrowth of the neurosphere cells was examined under a phase-contrast microscope and the farthest distance of cell migration was calculated from the edge of the sphere. At least 10 plated neurospheres per treatment were analyzed.
# [2] = in vitro; format: in vitro ADME; conditions: for Papp at 240 min, 100 μg mL^–1: PAMPA, pH 7.4, class from PAMPA-BBB Pe, read-out: CNS-permeability prediction; for PAMPA-BBB (Pe, 10^–6 cm s^–1): porcine brain lipid, PBS/EtOH (70:30), 240 min, 25 °C
# [3] = molecular target: T1, QR2 (Mesocricetus auratus, UniProt A0ABM2YAB8); assay: biochemical; conditions: for inhibition at 10 µM: read-out: QR2 percentage of inhibition (in brackets)
# T1 sequence (A0ABM2YAB8 1-231): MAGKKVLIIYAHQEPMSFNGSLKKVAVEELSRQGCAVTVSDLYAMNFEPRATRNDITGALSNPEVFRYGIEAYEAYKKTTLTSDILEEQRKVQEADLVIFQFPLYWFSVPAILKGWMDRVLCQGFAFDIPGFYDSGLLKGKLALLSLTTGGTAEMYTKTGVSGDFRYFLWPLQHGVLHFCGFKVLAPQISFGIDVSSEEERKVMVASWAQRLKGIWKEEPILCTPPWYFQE
# Protocol: The QR2 experiments were performed in membrane homogenates of hamster brains (https://www.eurofins.fr, catalog ref. 0088). […] First, radioligand displacement was measured at a fixed compound concentration (10 μM) in each receptor.
# [4] = Oxygen radical absorbance capacity (ORAC-FL) assay; conditions: trolox = 1.0
# Protocol: 2,2′-Azobis-(amidinopropane) dihydrochloride (AAPH), trolox, and fluorescein (FL) were purchased from Sigma-Aldrich. The reaction was carried out in a 75 mM phosphate buffer (pH 7.4), and the final reaction mixture was 200 μL. […] Antioxidant curves (fluorescence vs time) were first normalized to the curve of the blank corresponding to the same assay, and the area under the curve (AUC) of fluorescence decay was calculated. The net AUC corresponding to a sample was calculated by subtracting the AUC corresponding to the blank. Regression equations between the net AUC and antioxidant concentration were calculated for all the samples.
# [5] = molecular target: T2, hMAO-A (Homo sapiens, UniProt P21397); assay: biochemical; conditions: for IC50: read-out: hMAO-A (IC50), recombinant hMAO-A, p-tyramine substrate
# T2 sequence (P21397 1-527): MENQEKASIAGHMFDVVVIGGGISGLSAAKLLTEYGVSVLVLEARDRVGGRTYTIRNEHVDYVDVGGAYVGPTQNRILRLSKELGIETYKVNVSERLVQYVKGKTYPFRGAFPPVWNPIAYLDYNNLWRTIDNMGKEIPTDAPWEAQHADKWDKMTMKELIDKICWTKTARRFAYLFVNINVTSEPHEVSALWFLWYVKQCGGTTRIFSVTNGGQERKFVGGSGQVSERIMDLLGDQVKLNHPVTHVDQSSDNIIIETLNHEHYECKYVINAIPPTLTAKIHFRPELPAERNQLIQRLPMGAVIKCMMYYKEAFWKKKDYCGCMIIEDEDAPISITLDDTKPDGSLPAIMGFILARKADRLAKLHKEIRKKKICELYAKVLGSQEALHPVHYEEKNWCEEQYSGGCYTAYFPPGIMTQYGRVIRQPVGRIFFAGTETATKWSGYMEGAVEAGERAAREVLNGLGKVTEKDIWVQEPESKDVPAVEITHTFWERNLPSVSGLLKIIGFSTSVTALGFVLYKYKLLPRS
# Protocol: (§1) The hMAO-A/B inhibition of all compounds was determined using the Amplex Red MAO assay kit.
# (§2) Assays were performed following the general procedure previously described.[98] […] The specific fluorescence emission was calculated after subtracting the background activity, which was determined from wells containing all components except the hMAO isoforms, which were replaced with PBS.
# [6] = molecular target: T3, hMAO-B (Homo sapiens, UniProt P27338); assay: biochemical; conditions: for IC50: read-out: hMAO-B (IC50), recombinant hMAO-B, p-tyramine substrate; for inhibition at 50 µM: read-out: hMAO-B percentage of inhibition (in brackets)
# T3 sequence (P27338 1-520): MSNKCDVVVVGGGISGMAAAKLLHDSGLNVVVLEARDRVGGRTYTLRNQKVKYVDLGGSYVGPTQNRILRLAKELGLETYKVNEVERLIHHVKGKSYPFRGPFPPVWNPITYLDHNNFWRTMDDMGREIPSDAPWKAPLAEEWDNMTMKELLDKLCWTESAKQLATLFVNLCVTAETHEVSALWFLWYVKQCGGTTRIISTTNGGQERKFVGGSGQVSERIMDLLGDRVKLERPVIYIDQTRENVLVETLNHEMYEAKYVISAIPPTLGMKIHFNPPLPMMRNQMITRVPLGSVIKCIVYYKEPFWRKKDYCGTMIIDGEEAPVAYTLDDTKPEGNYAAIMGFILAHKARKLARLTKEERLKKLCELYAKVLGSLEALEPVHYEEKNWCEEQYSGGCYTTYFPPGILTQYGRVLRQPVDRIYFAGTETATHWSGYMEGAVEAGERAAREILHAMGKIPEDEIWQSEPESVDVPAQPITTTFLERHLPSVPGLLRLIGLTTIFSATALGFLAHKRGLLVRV
# Protocol: as §1, §2
# [7] = system: NRF2-ARE signaling pathway; assay: cells; format: cell-based; conditions: for NRF2 (CD, μM): concentration required to double luciferase activity, AREc32 cells, 24 h; for EC (2-fold induction): Arec32, 24 h, read-out: NRF2 (CD, μM), concentration required to double luciferase activity, AREc32 cells, 24 h
# Protocol: AREc32 cells were plated in 96-well white plates (2 × 10^4 cells/well). […]. The AREc32 cells constitutively express the plasmid pGL-8xARE that implements eight copies of the EpRE sequences, followed by the luciferase reporter gene. Therefore, NRF2 induction is related to the activation of EpRE sequences, expressing luciferase at the same extent as EpRE sequences are activated. The Luciferase Assay System (Promega E1500) was used according to the provider’s protocol, and luminescence was quantified in an Orion II microplate luminometer (Berthold, Germany). Fold induction of luciferase activity was normalized to basal conditions. Data are expressed as CD values, expressing the concentration required to double the luciferase activity. CD values were calculated from dose–response curves generated from the fold induction of control conditions versus inducer concentration and fitted by nonlinear regression and data interpolated to twofold induction concentration.[68]
# [8] = Experimental pKa; format: physicochemical
# Protocol: Introduction of the propargyl group in derivatives 2 was achieved by alkylation of the NH group of the oxadiazolone ring with propargyl bromide in basic media (K2CO3) and acetone. […] However, alkylation of the 3-hydroxylated derivative 3l was carried out overnight at room temperature (rt) in order to avoid possible secondary reactions through the phenolic group (experimental pKa for NH-oxadiazolone, 7.04 ± 0.02; for phenol 8.72 ± 0.02, Supporting Information 1, Table S1 and Figure S11).
# [9] = system: rat primary cortical neurons; assay: Neuroprotection against OA-induced toxicity in rat primary cortical neuronal cultures (MTT); conditions: for neuroprotection against OA-induced toxicity: compound 1 μM, OA 10 nM
Structure (SMILES),TuJ-1 and MAP-2 marked cells [1],cell migration distance [1],"Papp at 240 min, 100 μg mL^–1 [2] [×10⁻⁶ cm/s]","PAMPA-BBB (Pe, 10^–6 cm s^–1) [2]",IC50 [3] [µM],inhibition at 10 µM [3] [%],ORAC (trolox equiv) [4] [trolox equiv],IC50 [5] [µM],IC50 [6] [µM],"NRF2 (CD, μM) [7] [µM]",inhibition at 50 µM ([5]; read-out: hMAO-A percentage of inhibition (in brackets)) [%],inhibition at 50 µM [6] [%],EC (2-fold induction) [7] [µM],pKa ([8]; experimental pKa for NH-oxadiazolone),pKa ([8]; experimental pKa for phenol),neuroprotection against OA-induced toxicity [9],"viability at 1 µM ([9]; Rattus norvegicus, Primary cortical neuron, read-out: cell viability) [%]"
"O=c1[nH]nc(/C=C/c2cccc([N+](=O)[O-])c2)o1 [2c, 5-[(E)-2-(3-Nitrophenyl)ethenyl]-1,3,4-oxadiazol-2(3H)-one]",clearly increased,extended,> 4,4.7 ± 0.2 10^–6 cm s^–1,~10,56,<0.1,> 50,1.06 ± 0.22,8.42 ± 0.82,–,–,–,–,–,–,–
"COc1cccc(/C=C/c2n[nH]c(=O)o2)c1 [2d, 5-[(E)-2-(3-Methoxyphenyl)ethenyl]-1,3,4-oxadiazol-2(3H)-one]",clearly increased,extended,> 4,4.6 ± 0.2 10^–6 cm s^–1,~10,76,<0.1,> 50,> 50,–,24,33,> 60,–,–,–,–
"O=c1[nH]nc(/C=C/c2cccc(O)c2)o1 [3l, 5-[(E)-2-(3-Hydroxyphenyl)ethenyl]-1,3,4-oxadiazol-2(3H)-one]",clearly increased,extended,< 2,≤ 0.5 10^–6 cm s^–1,–,–,3.8 ± 0.1,> 50,> 50,–,–,–,> 60,7.04 ± 0.02,8.72 ± 0.02,–,–
"O=c1[nH]nc(/C=C/c2ccc(O)cc2)o1 [3m, 5-[(E)-2-(4-Hydroxyphenyl)ethenyl]-1,3,4-oxadiazol-2(3H)-one]",–,–,< 2,≤ 0.7 10^–6 cm s^–1,–,–,3.2 ± 0.1,41.5 ± 3.4,35.7 ± 3,–,–,–,–,–,–,not able to significantly reduce neuronal death,–
"C#CCn1nc(/C=C/c2cccc(OC)c2)oc1=O [4d, 5-[(E)-2-(3-Methoxyphenyl)ethenyl]-3-(prop-2-yn-1-yl)-1,3,4-oxadiazol-2(3H)-one]",clearly increased,extended,> 4,7.5 ± 0.3 10^–6 cm s^–1,0.4 ± 0.03,–,0.3 ± 0.06,> 50,0.64 ± 0.06,7.44 ± 0.34,–,–,–,–,–,slightly higher neuroprotection profile than resveratrol,86
"C#CCn1nc(/C=C/c2cccc(O)c2)oc1=O [5l, 5-[(E)-2-(3-Hydroxyphenyl)ethenyl]-3-(prop-2-yn-1-yl)-1,3,4-oxadiazol-2(3H)-one]",–,–,> 4,4.7 10^–6 cm s^–1 and 4.7 ± 0.2 10^–6 cm s^–1,2.5 ± 0.12,–,2.7 ± 0.2,> 50,3.53 ± 0.15,8.05 ± 1.41,–,–,–,–,–,–,–
"C#CCNC(=O)/C=C/c1ccc(O)c(O)c1 [6o, (2E)-3-(3,4-Dihydroxyphenyl)-N-(prop-2-yn-1-yl)prop-2-enamide]",–,–,< 2,≤ 0.4 10^–6 cm s^–1,–,–,1.9 ± 0.1,47 ± 0.9,> 50,19.2 ± 3.7,–,48,–,–,–,slightly higher neuroprotection profile than resveratrol,–
"C#CCNC/C=C/c1ccc(O)c(OC)c1 [8n, 2-Methoxy-4-{(1E)-3-[(prop-2-yn-1-yl)amino]prop-1-en-1-yl}phenol]",–,–,> 4,8.7 10^–6 cm s^–1 and 8.7 ± 0.6 10^–6 cm s^–1,0.2 ± 0.04,–,2.1 ± 0.2,30.3 ± 2.5,> 50,22.3 ± 2.9,–,45,–,–,–,–,–
